Experiments:
Test in all cases: radiometric filter-binding kinase assay, Kinaseprofiler
[1] = biological target: ACVR1B (human) (UniProt P36896); settings: compound 10.0 µM; ATP 10 µM
[2] = biological target: BRSK1 (human) (UniProt Q8TDC3); settings: ATP 200 µM
[3] = biological target: CAMK2B (human) (UniProt Q13554); settings: ATP 15 µM
[4] = biological target: CDK1 CCNB1 (human) (UniProt P06493+P14635); settings: compound 10.0 µM; ATP 45 µM
[5] = biological target: CDK2 CCNA2 (human) (UniProt P24941+P20248); settings: ATP 45 µM
[6] = biological target: CDK2 CCNE1 (human) (UniProt P24941+P24864); settings: ATP 120 µM
[7] = biological target: CDK3 CCNE1 (human) (UniProt Q00526+P24864); settings: ATP 200 µM
[8] = biological target: DYRK2 (human) (UniProt Q92630); settings: compound 10.0 µM; ATP 15 µM
[9] = tested on: FLT4 (human), P35916 [V1128L/H1146R]; settings: compound 1.0 µM; ATP 200 µM
[10] = biological target: INSR (human) (UniProt P06213); settings: compound 10.0 µM; ATP 45 µM
[11] = biological target: JAK2 JH1 catalytic (human) (UniProt O60674); settings: compound 10.0 µM; ATP 45 µM
[12] = biological target: JAK3 JH1 catalytic (human) (UniProt P52333); settings: ATP 10 µM
[13] = biological target: KDR (human) (UniProt P35968); settings: compound 10.0 µM; ATP 90 µM
[14] = biological target: LYN (human) (UniProt P07948); settings: compound 10.0 µM; ATP 70 µM
[15] = biological target: MAP2K7 (human) (UniProt O14733); settings: compound 10.0 µM; ATP 10 µM
[16] = biological target: MAP3K5 (human) (UniProt Q99683); settings: ATP 200 µM
[17] = biological target: MAP3K7 (human) (UniProt O43318); settings: ATP 45 µM
[18] = biological target: MAP3K9 (human) (UniProt P80192); settings: compound 10.0 µM; ATP 45 µM
[19] = biological target: MAPK10 (human) (UniProt P53779); settings: ATP 10 µM
[20] = biological target: MELK (human) (UniProt Q14680); settings: compound 10.0 µM; ATP 45 µM
[21] = biological target: MINK1 (human) (UniProt Q8N4C8); settings: compound 1.0 µM; ATP 185 µM
[22] = biological target: MKNK2 (human) (UniProt Q9HBH9); settings: ATP 120 µM
[23] = biological target: PAK4 (human) (UniProt O96013); settings: compound 10.0 µM; ATP 10 µM
[24] = biological target: PIM2 (human) (UniProt Q9P1W9); settings: compound 10.0 µM; ATP 15 µM
[25] = biological target: PRKAA1 PRKAB1 PRKAG1 (human) (UniProt P54619+Q13131+Q9Y478); settings: ATP 45 µM
[26] = biological target: PRKCA (human) (UniProt P17252); settings: compound 10.0 µM; ATP 45 µM
[27] = tested on: PRKD1 (human), Q15139 [R135A]; settings: compound 10.0 µM; ATP 45 µM
[28] = biological target: PRKX (human) (UniProt P51817); settings: compound 10.0 µM; ATP 200 µM
[29] = biological target: RPS6KA2 KD1 KD2 (human) (UniProt Q15349); settings: compound 1.0 µM; ATP 10 µM
[30] = biological target: STK17A (human) (UniProt Q9UEE5); settings: compound 1.0 µM; ATP 10 µM
[31] = biological target: STK33 (human) (UniProt Q9BYT3); settings: compound 10.0 µM; ATP 155 µM
[32] = biological target: TBK1 (human) (UniProt Q9UHD2); settings: compound 1.0 µM; ATP 155 µM
[33] = biological target: TNK2 (human) (UniProt Q07912); settings: ATP 70 µM
[34] = biological target: TSSK2 (human) (UniProt Q96PF2); settings: compound 10.0 µM; ATP 15 µM
[35] = biological target: ULK2 (human) (UniProt Q8IYT8); settings: compound 10.0 µM; ATP 15 µM

Sequence of MKNK2 (human) (Q9HBH9 whole entry, looked up): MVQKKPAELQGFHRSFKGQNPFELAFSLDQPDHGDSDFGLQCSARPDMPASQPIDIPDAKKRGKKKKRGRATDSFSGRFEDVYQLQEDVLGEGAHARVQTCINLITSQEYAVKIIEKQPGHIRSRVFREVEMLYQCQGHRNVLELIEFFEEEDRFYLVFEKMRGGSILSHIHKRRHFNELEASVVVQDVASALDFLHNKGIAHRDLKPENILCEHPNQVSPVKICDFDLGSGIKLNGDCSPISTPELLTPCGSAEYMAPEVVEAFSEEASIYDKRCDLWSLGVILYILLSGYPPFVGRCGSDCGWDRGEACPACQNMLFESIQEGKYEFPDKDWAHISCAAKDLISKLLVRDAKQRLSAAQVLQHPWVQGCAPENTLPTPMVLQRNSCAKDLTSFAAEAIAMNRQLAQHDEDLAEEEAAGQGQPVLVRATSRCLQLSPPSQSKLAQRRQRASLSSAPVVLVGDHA
Sequence of MAP3K5 (human) (Q99683 whole entry, looked up): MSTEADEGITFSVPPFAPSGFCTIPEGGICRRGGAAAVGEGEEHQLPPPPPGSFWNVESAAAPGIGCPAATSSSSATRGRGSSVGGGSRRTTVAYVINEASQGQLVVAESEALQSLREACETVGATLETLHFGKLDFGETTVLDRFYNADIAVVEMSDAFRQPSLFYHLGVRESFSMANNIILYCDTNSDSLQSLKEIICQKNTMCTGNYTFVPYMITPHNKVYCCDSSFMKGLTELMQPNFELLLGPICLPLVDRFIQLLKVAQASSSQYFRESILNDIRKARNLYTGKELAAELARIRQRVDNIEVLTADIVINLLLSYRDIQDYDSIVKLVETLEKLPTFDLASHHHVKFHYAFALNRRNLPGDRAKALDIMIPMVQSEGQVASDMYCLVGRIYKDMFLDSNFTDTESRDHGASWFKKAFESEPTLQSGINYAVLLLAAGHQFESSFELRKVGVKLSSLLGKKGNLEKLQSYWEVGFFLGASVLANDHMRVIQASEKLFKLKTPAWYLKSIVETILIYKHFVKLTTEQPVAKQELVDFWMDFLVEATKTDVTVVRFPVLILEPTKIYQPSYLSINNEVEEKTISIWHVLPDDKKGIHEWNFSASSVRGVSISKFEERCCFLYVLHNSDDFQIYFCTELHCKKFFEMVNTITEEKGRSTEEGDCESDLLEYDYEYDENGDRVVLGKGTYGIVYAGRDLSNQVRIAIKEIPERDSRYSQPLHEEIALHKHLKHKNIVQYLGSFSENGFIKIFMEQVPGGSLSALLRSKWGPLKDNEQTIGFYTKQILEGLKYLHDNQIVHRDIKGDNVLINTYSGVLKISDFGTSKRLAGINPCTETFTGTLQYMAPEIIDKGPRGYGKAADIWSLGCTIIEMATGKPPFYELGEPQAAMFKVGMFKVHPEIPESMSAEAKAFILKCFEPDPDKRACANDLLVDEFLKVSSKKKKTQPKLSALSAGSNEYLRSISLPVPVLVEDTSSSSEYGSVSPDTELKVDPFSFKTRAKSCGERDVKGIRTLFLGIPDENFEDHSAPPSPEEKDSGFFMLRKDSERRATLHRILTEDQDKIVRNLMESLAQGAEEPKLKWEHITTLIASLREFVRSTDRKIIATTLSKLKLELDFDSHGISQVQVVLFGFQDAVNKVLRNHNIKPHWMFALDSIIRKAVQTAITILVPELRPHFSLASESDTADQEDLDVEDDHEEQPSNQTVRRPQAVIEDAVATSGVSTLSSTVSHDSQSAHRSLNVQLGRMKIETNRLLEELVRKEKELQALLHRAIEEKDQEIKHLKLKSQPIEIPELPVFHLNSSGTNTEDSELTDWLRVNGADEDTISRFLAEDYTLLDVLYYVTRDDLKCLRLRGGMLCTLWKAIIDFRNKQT
Sequence of TNK2 (human) (Q07912 whole entry, looked up): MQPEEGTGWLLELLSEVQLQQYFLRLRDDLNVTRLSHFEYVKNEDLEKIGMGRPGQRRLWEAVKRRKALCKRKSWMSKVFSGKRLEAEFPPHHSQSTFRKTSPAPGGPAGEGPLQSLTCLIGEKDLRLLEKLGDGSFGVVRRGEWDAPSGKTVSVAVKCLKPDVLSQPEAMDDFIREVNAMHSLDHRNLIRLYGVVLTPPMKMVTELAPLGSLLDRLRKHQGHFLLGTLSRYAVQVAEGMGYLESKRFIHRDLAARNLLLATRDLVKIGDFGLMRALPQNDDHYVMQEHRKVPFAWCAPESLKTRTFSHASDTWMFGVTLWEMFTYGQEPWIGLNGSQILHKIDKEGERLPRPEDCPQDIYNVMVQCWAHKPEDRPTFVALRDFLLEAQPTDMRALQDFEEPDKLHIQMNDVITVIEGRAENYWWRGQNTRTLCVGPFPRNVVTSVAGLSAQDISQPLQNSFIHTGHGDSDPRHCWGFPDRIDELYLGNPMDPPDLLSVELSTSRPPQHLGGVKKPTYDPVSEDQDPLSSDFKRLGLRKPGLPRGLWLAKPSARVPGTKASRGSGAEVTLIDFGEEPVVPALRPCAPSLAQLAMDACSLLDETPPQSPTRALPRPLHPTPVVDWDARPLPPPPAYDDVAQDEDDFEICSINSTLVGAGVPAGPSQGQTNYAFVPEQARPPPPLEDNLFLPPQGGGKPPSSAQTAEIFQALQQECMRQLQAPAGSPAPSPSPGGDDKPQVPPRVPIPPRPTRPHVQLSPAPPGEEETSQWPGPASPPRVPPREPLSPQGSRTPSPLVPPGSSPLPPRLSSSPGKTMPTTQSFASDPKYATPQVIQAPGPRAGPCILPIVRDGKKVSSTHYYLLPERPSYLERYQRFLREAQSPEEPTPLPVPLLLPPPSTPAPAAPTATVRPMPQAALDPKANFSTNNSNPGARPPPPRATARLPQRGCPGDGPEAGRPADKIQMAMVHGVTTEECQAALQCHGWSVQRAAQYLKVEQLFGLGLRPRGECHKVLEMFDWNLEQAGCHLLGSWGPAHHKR
Sequence of JAK3 JH1 catalytic (human) (P52333 whole entry, looked up): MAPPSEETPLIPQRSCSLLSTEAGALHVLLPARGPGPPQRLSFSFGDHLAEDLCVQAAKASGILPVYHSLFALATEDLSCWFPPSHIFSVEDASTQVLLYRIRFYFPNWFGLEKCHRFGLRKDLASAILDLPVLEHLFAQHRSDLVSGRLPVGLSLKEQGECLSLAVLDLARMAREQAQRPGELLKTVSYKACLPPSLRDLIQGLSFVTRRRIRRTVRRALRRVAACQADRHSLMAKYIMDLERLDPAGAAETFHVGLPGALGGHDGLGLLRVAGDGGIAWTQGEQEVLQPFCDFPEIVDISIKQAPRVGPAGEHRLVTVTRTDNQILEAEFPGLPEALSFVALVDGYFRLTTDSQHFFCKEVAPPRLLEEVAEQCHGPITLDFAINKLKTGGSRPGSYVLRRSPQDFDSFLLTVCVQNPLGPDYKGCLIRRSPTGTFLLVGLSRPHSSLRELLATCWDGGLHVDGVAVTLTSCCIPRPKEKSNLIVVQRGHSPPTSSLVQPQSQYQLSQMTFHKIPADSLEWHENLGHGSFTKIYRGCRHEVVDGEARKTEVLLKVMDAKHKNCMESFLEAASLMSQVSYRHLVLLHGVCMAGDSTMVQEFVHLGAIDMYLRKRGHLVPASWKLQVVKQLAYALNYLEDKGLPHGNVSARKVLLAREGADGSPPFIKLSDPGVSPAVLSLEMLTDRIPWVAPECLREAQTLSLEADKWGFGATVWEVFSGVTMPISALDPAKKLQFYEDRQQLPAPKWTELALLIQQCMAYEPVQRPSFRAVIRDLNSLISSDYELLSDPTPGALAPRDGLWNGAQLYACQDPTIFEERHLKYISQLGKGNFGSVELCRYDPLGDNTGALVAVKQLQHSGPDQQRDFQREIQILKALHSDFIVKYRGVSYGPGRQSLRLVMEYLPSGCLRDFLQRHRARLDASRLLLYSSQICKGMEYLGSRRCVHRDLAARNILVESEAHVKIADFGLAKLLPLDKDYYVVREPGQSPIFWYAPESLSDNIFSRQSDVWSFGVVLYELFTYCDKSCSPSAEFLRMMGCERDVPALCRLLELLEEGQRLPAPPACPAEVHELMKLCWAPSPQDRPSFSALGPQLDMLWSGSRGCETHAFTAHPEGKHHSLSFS
Sequence of MAPK10 (human) (P53779 whole entry, looked up): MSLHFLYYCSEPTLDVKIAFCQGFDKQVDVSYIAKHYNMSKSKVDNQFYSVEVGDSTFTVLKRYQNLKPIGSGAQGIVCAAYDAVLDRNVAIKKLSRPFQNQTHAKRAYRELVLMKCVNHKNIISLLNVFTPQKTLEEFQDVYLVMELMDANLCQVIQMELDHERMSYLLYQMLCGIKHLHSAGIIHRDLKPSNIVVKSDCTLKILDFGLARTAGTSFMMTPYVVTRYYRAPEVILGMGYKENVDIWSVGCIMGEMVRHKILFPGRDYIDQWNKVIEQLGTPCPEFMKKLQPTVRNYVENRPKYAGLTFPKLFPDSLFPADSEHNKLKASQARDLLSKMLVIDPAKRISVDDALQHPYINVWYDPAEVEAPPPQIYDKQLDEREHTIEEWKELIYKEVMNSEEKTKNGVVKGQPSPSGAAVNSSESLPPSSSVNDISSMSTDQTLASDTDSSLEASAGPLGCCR
Sequence of CDK2 CCNA2 (human) (P20248 whole entry, looked up, other chains not shown): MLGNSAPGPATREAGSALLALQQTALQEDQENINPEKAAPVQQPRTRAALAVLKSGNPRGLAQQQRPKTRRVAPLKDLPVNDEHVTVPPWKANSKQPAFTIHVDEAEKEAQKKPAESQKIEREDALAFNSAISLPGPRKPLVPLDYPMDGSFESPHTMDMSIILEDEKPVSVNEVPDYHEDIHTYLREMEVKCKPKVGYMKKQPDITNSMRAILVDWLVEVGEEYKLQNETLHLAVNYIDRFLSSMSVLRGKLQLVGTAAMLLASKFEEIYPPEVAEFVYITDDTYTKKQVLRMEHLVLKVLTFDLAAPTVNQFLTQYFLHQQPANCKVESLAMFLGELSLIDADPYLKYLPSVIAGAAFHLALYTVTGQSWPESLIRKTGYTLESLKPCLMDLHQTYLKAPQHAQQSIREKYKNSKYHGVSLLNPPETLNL

## COC(=O)[C@]1(O)C[C@@H]2O[C@@]1(C)n1c3ccccc3c3c4c(c5c6ccccc6n2c5c31)C(=O)NC4
[1]
  residual activity: 0%
[2]; compound 1.0 µM
  residual activity: -1%
[2]; compound 10.0 µM
  residual activity: 0%
[3]; compound 1.0 µM
  residual activity: 0%
[3]; compound 10.0 µM
  residual activity: -1%
[4]
  residual activity: -1%
[5]; compound 1.0 µM
  residual activity: 1%
[5]; compound 10.0 µM
  residual activity: 0%
[6]; compound 1.0 µM
  residual activity: 6%
[6]; compound 10.0 µM
  residual activity: 0%
[7]; compound 1.0 µM
  residual activity: 27%
[7]; compound 10.0 µM
  residual activity: 2%
[8]
  residual activity: -4%
[9]
  residual activity: 0%
[10]
  residual activity: 0%
[11]
  residual activity: -1%
[12]; compound 1.0 µM
  residual activity: 0%
[12]; compound 10.0 µM
  residual activity: 0%
[13]
  residual activity: 0%
[14]
  residual activity: 0%
[15]
  residual activity: 0%
[16]; compound 1.0 µM
  residual activity: 0%
[16]; compound 10.0 µM
  residual activity: 0%
[17]; compound 1.0 µM
  residual activity: -1%
[17]; compound 10.0 µM
  residual activity: -5%
[18]
  residual activity: 0%
[19]; compound 1.0 µM
  residual activity: -3%
[19]; compound 10.0 µM
  residual activity: -1%
[20]
  residual activity: -1%
[21]
  residual activity: 0%
[22]; compound 1.0 µM
  residual activity: 0%
[22]; compound 10.0 µM
  residual activity: 0%
[23]
  residual activity: 0%
[24]
  residual activity: -2%
[25]; compound 1.0 µM
  residual activity: -1%
[25]; compound 10.0 µM
  residual activity: 0%
[26]
  residual activity: 0%
[27]
  residual activity: 0%
[28]
  residual activity: 0%
[29]
  residual activity: 0%
[30]
  residual activity: 0%
[31]
  residual activity: 0%
[32]
  residual activity: -1%
[33]; compound 1.0 µM
  residual activity: 0%
[33]; compound 10.0 µM
  residual activity: 0%
[34]
  residual activity: 0%
[35]
  residual activity: 0%

Source: the kinase profiling compilation of Christmann-Franck et al. (2016)
